Source: BindingDB's records for doi:10.1021/np8001145 (Kaohsiung Medical University, 2008)
pIC50: −log10 of the molar value.

Target: Xanthine dehydrogenase/oxidase (Homo sapiens, UniProt P47989)
Assay: Inhibition of xanthine oxidase

Chain of Xanthine dehydrogenase/oxidase (P47989 whole entry): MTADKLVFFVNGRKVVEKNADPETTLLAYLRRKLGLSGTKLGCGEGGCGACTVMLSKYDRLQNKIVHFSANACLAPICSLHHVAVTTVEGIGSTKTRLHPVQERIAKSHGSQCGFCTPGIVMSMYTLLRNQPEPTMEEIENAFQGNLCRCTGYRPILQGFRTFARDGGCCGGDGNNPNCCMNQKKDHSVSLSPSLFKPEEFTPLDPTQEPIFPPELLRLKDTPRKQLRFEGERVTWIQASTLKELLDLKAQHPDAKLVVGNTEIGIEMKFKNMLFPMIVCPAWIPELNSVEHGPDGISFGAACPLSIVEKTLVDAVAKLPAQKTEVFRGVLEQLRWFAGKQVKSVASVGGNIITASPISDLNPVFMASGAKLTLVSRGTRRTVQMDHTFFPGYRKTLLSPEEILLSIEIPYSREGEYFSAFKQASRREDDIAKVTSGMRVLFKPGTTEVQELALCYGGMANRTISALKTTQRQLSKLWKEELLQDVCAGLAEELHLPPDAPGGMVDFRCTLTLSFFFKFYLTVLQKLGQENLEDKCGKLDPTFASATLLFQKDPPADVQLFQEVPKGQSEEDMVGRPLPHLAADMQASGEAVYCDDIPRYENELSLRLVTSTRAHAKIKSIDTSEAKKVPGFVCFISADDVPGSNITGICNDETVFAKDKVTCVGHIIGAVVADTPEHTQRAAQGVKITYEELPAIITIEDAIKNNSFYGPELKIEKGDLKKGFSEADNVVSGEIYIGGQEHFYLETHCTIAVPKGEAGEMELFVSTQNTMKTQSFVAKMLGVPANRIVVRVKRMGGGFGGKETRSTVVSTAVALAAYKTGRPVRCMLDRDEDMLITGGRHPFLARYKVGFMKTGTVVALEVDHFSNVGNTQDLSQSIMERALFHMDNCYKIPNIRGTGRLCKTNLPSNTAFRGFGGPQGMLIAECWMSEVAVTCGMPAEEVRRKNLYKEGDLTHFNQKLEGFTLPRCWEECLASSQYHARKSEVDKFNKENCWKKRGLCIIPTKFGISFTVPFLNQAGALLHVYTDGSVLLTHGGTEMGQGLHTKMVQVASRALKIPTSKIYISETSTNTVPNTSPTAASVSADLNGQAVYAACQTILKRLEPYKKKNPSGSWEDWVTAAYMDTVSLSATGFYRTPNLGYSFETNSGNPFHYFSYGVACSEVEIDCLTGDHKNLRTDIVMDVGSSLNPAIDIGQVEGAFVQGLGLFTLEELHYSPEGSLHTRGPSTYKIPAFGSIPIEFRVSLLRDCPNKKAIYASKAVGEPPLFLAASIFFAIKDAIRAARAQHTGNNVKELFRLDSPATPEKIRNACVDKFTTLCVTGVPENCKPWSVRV

Question: `CCC(C)C(=O)C1C(=O)[C@@](C)(CC=C(C)C)C(=O)[C@@]2(C[C@H]3[C@H](CC[C@@]3(C)O)[C@](C)(O)C2)C1=O` (stereo partly specified) was tested. Which pIC50 did it give?
Answer: 4.38
